Assay results: patent US6361788B1, “Synergistic biocide composition” (Thor Chemie GmbH, priority 1997, dated 2002)
Like-named read-outs stand apart in the source and are kept apart here.

System: Penicillium funiculosum
Assay: MIC and synergy of MIT/BIT (1:1) and BNPD in Sabouraud maltose broth, 72 h
Type: cell-based
Conditions: for growth of the microorganism: MIT/BIT 0 ppm; for MIC: Talaromyces funiculosus
Description: In all the examples in which an active substance mixture of MIT and BIT as well as additionally a further active biocidal substance was used, the weight ratio of MIT to BIT was 1:1.
The synergy index is calculated according to the method of F. C. Kull et al., Applied Microbiology, Vol. 9 (1961), p. 538. Here the synergy index is calculated using the following formula:
Synergy index SI=Qa/QA+Qb/QB.
The synergy of an active substance that contains 2-bromo-2-nitropropane-1,3-diol (BNPD) in addition to MIT and BIT, against the microorganism Penicillium funiculosum is shown as in Example 1.
The test batches contained a Sabouraud maltose broth as a nutrient medium. The spore concentration was 10^6 per mL. The incubation time was 72 h at 25° C. Each sample was incubated on an incubation shaker at 120 rpm.

[1] = MIT/BIT 0.0% by wt, BNPD 100.0% by wt, 72 h

## O=[N+]([O-])C(Br)(CO)CO [BNPD, 2-bromo-2-nitropropane-1,3-diol]
[1]
  Qb/QB: 1.00
  Synergy index Qa/QA + Qb/QB: 1.00
BNPD 25 ppm, 72 h
  growth of the microorganism: +
BNPD 50 ppm, 72 h
  growth of the microorganism: +
BNPD 100 ppm, 72 h
  growth of the microorganism: +
BNPD 150 ppm, 72 h
  growth of the microorganism: +
BNPD 200 ppm, 72 h
  growth of the microorganism: +
BNPD 300 ppm, 72 h
  growth of the microorganism: +
BNPD 400 ppm, 72 h
  growth of the microorganism: +
BNPD 600 ppm, 72 h
  growth of the microorganism: −
BNPD 800 ppm, 72 h
  growth of the microorganism: −
BNPD 1000 ppm, 72 h
  growth of the microorganism: −
MIT/BIT 0.0% by wt, BNPD 100.0% by wt, 72 h, read-out: MIC at BNPD concentration Qb
  MIC: 600 µg/mL
MIT/BIT 0.0% by wt, BNPD 100.0% by wt, 72 h, read-out: MIC at Total concentration MIT/BIT + BNPD
  MIC: 600 µg/mL
Used alone, 72 h at 25° C., read-out: MIC value
  MIC: 600 µg/mL
